Results: article PMC9570599, “Kribbellichelins A and B, Two New Antibiotics from Kribbella sp. CA-293567 with Activity against Several Human Pathogens” (Molecules, 2022)
≈ marks a conversion by molar mass, not a printed value. Where “and” joins values, the source holds several entries; their conditions need not be identical. Equal values may be shown once. Entries after “also recorded” stand apart in the source; their conditions may differ. Read-outs that look alike come from different tables or passages of the source.

What was measured:
C. albicans ATCC-64124 = test: Antifungal growth inhibition assay, C. albicans; type: cell-based, Candida albicans
Procedure: (§1) Purification fractions and purified compounds 1–3 and 5 were tested against a wide panel of antimicrobial assays for the growth inhibition of human pathogens including MRSA MB-5393, A. baumannii MB-5973, P. aeruginosa MB-5919, A. fumigatus ATCC-46645, and C. albicans ATCC-64124 as 10-point curves with 1:2 dilutions starting at 128 μg/mL in duplicate, following previously described methodologies. Most of the pathogens were acquired from the American Type Culture Collection (ATCC)(Manassas, VA, USA), except for those already present in our MEDINA bacteria collection (MB). Pathogen panel investigated was selected according to typical reference strains and procedures indicated by the […].
(§2) The antifungal assay was performed following this methodology; briefly, a thawed stock inoculum suspension from a cryovial of A. fumigatus and C. albicans was streaked onto PDA and Sabouraud Dextrose Agar medium, respectively, and suspended in RPMI-1640 modified medium and incubated at 37 °C for 24 h. Spores concentration of A. fumigatus was determined by counting in Neubauer chamber in order to dilute the culture and obtain an assay inoculum of 2.5 × 10^4 spores/mL. For C. albicans, the OD660 was adjusted to 0.25 using RPMI-1640 modified as diluent and blank. Then, a dilution from the adjusted inoculum was prepared at 1/100 to inoculate 96-well assay plates.
(§3) For the assay, 90 μL/well of the diluted inoculum was mixed with 1.6 μL/well of compound dissolved in DMSO and 8.4 μL/well of MHII or BHI medium for Gram-negative and Gram-positive strains, respectively. Vancomycin was included as an internal plate control for MRSA. A rifampicin, aztreonam, and amphotericin B dose-response curve was used as a positive control against P. aeruginosa, A. baumannii and A. fumigatus, and C. albicans, respectively. Each compound was tested as a 10-point dose-response curve by 1:2 serial dilutions in DMSO starting at 128 µg/mL in duplicate. Total growth was measured using the EnVision® (Redwood City, CA, USA) Multilabel plate reader (Perkin Elmer) with two readings, one at initial time and one after which the microorganism was incubated at 37 °C for 18–20 hours. For the A. fumigatus assay, total growth was measured with a single reading after the incubation.

A. fumigatus ATCC-46645 = test: Antifungal growth inhibition assay, A. fumigatus; type: cell-based, Aspergillus fumigatus; details: for inhibition at 7.2 µg/mL / IC50: Aspergillus fumigatus; for inhibition at 7.2 µg/mL: at 7.2 µg/mL (optimal concentration), atypical profile, Eagle effect, read-out: maximum inhibition against A. fumigatus; for decreasing inflection point against A. fumigatus: less inhibition at higher concentrations (Eagle effect)
Procedure: as §1, §2, §3

MRSA MB-5393 = test: Gram-positive antibacterial growth inhibition assay, MRSA; type: cell-based, methicillin-resistant Staphylococcus aureus; details: for activity against MRSA (in words): pure compound, up to 128 µg/mL
Procedure: as §1
For Gram-positive MRSA, a thawed stock inoculum suspension from a cryovial of this microorganism was streaked onto brain heart infusion (BHI) agar plate and incubated at 37 °C overnight to obtain isolated colonies. Single colonies were inoculated into 10 mL of BHI broth medium in 250 mL Erlenmeyer flask and incubated overnight at 37 °C with shaking at 220 rpm and then diluted in order to obtain an assay inoculum of 1.1 × 10^6 CFU/mL [52].
as §3

A. baumannii MB-5973 = test: Gram-negative antibacterial growth inhibition assay, A. baumannii; type: cell-based, Acinetobacter baumannii; details: for maximum activity of growth inhibition plateau, A. baumannii: at concentrations higher than 10 µg/mL; for activity against A. baumannii (in words): pure compound, up to 128 µg/mL
Procedure: as §1
(§4) Gram-negative antibacterial assay was performed following this procedure; thawed stock inoculum from vials was streaked onto MHII agar plates and incubated overnight at 37 °C. Isolated colonies were selected and inoculated in 25 mL of MHII liquid growth medium in 250 mL Erlenmeyer flasks overnight at 37 °C. MHII liquid growth medium was used in a 96-well plate assay, adjusting at 5 × 10^5 colony forming units (cfu)/mL (OD600 nm).
as §3

P. aeruginosa MB-5919 = test: Gram-negative antibacterial growth inhibition assay, P. aeruginosa; type: cell-based, Pseudomonas aeruginosa; details: for maximum activity of growth inhibition plateau, P. aeruginosa: at concentrations higher than 10 µg/mL; for activity against P. aeruginosa (in words): pure compound, up to 128 µg/mL
Procedure: as §1, §4, §3

[1] = system: human hepatoma cell line HepG2 (ATCC HB-8065); test: MTT cytotoxicity bioassay; type: cell-based; details: 72 h; for cytotoxicity against HepG2 (in words): up to 40 µg/mL
Procedure: Pure compounds were assayed against the human hepatoma cell line HepG2 (ATCC HB-8065) in an MTT test as 20-point curves with 1:2 dilutions starting at 40 μg/mL in triplicate. Cells were seeded at 10.000 cells/well in a 96-well plate (Corning 96-well TC-treated microplates) for 24 h and after addition of compounds 1–3 and 5 plates were incubated for 72 h. MMS (methylmethanesulfonate, Sigma-Aldrich, 4 mM) was used as the positive control, and DMSO 0.5% as the negative control. After addition of MMT dye (thiazolyl blue tetrazoliumbromide, ACROS Organics), cells were incubated for 2–3 h and supernatant was removed. Resulting formazan crystals were finally dissolved by means of 100 µL DMSO (100%) and absorbance was measured at 570 nm. The obtained data was analyzed using Genedata Screener software (Genedata, Inc., Basel, Switzerland) and Prim 9.4.1 software, from GraphPad was used for titrations representation.

Bacillus subtilis = system: Bacillus subtilis; set-up: method as in PMID 8436549; details: previously reported; cited from earlier work
S. aureus = system: S. aureus; set-up: method as in PMID 8436549; details: previously reported; cited from earlier work
Streptococcus faecalis = system: Streptococcus faecalis; set-up: method as in PMID 8436549; details: previously reported; cited from earlier work
Saccharomyces cerevisiae = system: Saccharomyces cerevisiae; set-up: method as in PMID 28074052; details: previously reported; cited from earlier work

| SMILES | inhibition at 7.2 µg/mL (A. fumigatus ATCC-46645; ATCC46645) [%] | decreasing inflection point against A. fumigatus (A. fumigatus ATCC-46645) [µg/mL] | activity against MRSA (in words) (MRSA MB-5393) | maximum activity of growth inhibition plateau, A. baumannii (A. baumannii MB-5973) [%] | activity against A. baumannii (in words) (A. baumannii MB-5973) | maximum activity of growth inhibition plateau, P. aeruginosa (P. aeruginosa MB-5919) [%] | activity against P. aeruginosa (in words) (P. aeruginosa MB-5919) | cytotoxicity against HepG2 (in words) [1] | other results |
| --- | --- | --- | --- | --- | --- | --- | --- | --- | --- |
| COC(=O)c1cc(O)c(O)c(C(=O)NCCC(=O)N[C@@H](CCCN(O)C(=O)[C@H](CO)NC(=O)CCNC(=O)c2nc(C(=O)OC)cc(O)c2O)C(=O)O)n1 [Compound 1, kribbellichelin A] | 40 | ~50 | no activity | 45 | minor inhibitory properties | 30 | minor inhibitory properties | nor significant cytotoxic activity; also recorded: no relevant cytotoxicity | IC50 versus C. albicans (C. albicans ATCC-64124; C. albicans ATCC-64124, 10-point curve from 128 µg/mL, duplicate): 11.72 µg/mL (≈ 15.3 µM); IC50 (C. albicans ATCC-64124; C. albicans ATCC-64124, molar value in brackets, read-out: IC50 versus C. albicans): 15.3 µM; IC50 (C. albicans ATCC-64124; Candida albicans, ATCC64124, C. albicans ATCC-64124, 10-point curve from 128 µg/mL, duplicate, read-out: IC50 versus C. albicans): 11.7 µg/mL; IC50 (C. albicans ATCC-64124; Candida albicans, ATCC64124, C. albicans ATCC-64124, molar value in brackets, read-out: IC50 versus C. albicans): 15.2 µM |
| COC(=O)c1cc(O)c(O)c(C(=O)NCCC(=O)N[C@@H](CCCN(O)C(=O)[C@H](CO)NC(=O)CCNC(=O)c2nc(C(=O)OC)cc(O)c2O)C(=O)OC)n1 [Compound 2, kribbellichelin B] | 40 | ~50 | no activity | 45 | minor inhibitory properties | 30 | minor inhibitory properties | nor significant cytotoxic activity; also recorded: no relevant cytotoxicity |  |
| CC(C)[C@H]1C(=O)OC[C@@H](NC(=O)c2nc3ccccc3cc2O)C(=O)N2CCCC[C@H]2C(=O)NCC(=O)N(C)CC(=O)N(C)[C@@H](C(C)C)C(=O)OC[C@@H](NC(=O)c2nc3ccccc3cc2O)C(=O)N2CCCC[C@@H]2C(=O)NCC(=O)N(C)CC(=O)N1C [Compound 3, sandramycin] |  |  |  |  | no antibacterial activity |  | no antibacterial activity |  | IC50 (C. albicans ATCC-64124; Candida albicans, ATCC64124, read-out: IC50 versus C. albicans): 7.55 µg/mL and 6.19 µM; IC50 (A. fumigatus ATCC-46645; ATCC46645, read-out: IC50 against A. fumigatus): 5.72 µg/mL and 4.69 µM; IC50 (MRSA MB-5393; Staphylococcus aureus, MRSA, read-out: IC50 versus MRSA MB-5393): 0.31 µg/mL and 250 nM; ED50 cytotoxic activity against HepG2 ([1]; molar value in brackets): 0.00129 µM; antibiotic activity versus Bacillus subtilis (in words) (Bacillus subtilis): strong antibiotic activity; antibiotic activity versus S. aureus (in words) (S. aureus): strong antibiotic activity; antibiotic activity versus Streptococcus faecalis (in words) (Streptococcus faecalis): strong antibiotic activity |
| CC(C)CCCCCCCCCCCCCOC[C@@H](O)CO[C@H]1O[C@H](C(=O)O)[C@@H](O[C@H]2O[C@H](CO)[C@@H](O)[C@H](O)[C@H]2O)[C@H](O)[C@H]1O [Compound 5, kribelloside C] |  |  | no activity |  | no activity |  | no activity | no relevant cytotoxicity | activity against C. albicans (in words) (C. albicans ATCC-64124; pure compound, up to 128 µg/mL): no activity; also recorded: not observed; IC50 (A. fumigatus ATCC-46645; ATCC46645, A. fumigatus ATCC-46645, read-out: IC50 against A. fumigatus): 13.7 µg/mL (≈ 20.8 µM); antifungal activity versus Saccharomyces cerevisiae (in words) (Saccharomyces cerevisiae): interesting activities as an antifungal agent |
